The text below walks through data of ChEMBL document CHEMBL5726990, “Thiazolidinones as cellular anandamide uptake inhibitors and their use in the treatment of psychiatric or neurological disorders and inflammation, in particular neuroinflammation” (2019).

A short description of the test: [3H]-AEA Cellular Uptake: Screening for AEA cellular uptake inhibition was performed in a semi-automated procedure: Pipetting and washing steps were performed by a Biomek3000 laboratory workstation. First, required amounts of U937 cells were centrifuged at 100×g for 5 min and resuspended in RPMI (37° C.) to a final concentration of 2×10^6 cells/mL. Then, 250 μL of cell suspension (0.5×10^6 cells per sample) were transferred into AquaSil™ silanized glass vials (Chromacol 1.1-MTV) in 96-well format. After addition of 5 μL vehicle (DMSO) or compounds the cells were incubated at 37° C. for 15 min. As positive controls OMDM-2 and UCM707 were used at 10 μM in each run. The ETI-T compounds were measured at up to 7 concentrations in triplicates from 100 pM-100 μM. After pre-incubation, a mixture of 0.5 nM[ethanolamine-1-3H]-AEA, (60 Ci/mmol) and 99.5 nM of cold AEA (final 100 nM) was added and samples were incubated at 37° C. for another 15 min. The reaction was stopped by rapid filtration over UniFilter-96 GF/C filters (PerkinElmer) pre-soaked with PBS 0.25% BSA. Cells were washed three times with 100 μL ice-cold PBS buffer containing 1% fatty acid free BSA. After drying, 45 μL MicroScint 20 scintillation cocktail (PerkinElmer, Waltham, Mass., US) was added to the wells and the plate was sealed. Radioactivity was measured by liquid scintillation counting on a PerkinElmer Wallac Trilux MicroBeta 1450 during 2 min. Non-specific binding of [3H]AEA (100 nM) to the glass vials was never higher than 10%. IC50 values were calculated by GraphPad® by non-linear regression using the built-in log(inhibitor) vs. response-variable slope (four parameters) function. The conditions noted are these: U-937.
For the compound `CC/N=C1\S/C(=C\c2ccc(O)c(OCC)c2)C(=O)N1CC`, the IC50 was 145 nM.
With `O=C1/C(=C/c2ccc(O)cc2)S/C(=N\c2ccccc2)N1OC1=CC=CC1`, the concentration for half-maximal inhibition (IC50) was 434 nM.
In the case of `CCCN1C(=O)/C(=C\c2ccc(C(C)C)cc2)S/C1=N\c1ccccc1` it was 355 nM.
